Results as given in patent US10772909B2, “System and method for insulin-mimetic of cartilage, bone, or osteochondral repair and piezoelectric composite scaffold” (New Jersey Institute of Technology, priority 2016, dated 2020).

Assays:
Human MSCs = assay: Chondrogenesis culture: sGAG production (Blyscan); format: cell-based
Protocol: (§1) Chondrogenesis Culture. Cryopreserved MSCs were thawed and expanded in GM until 70-80% confluent. Cells were trypsininzed and then seeded on 6 mm diameter scaffold disks at 1.76×10^5 cells/cm^2 and cultured for 28 days in GM, chondrogenic induction medium (CCM), or CCM without insulin, according to previously published methods. CCM consisted of DMEM high glucose containing 4 mM L-glutamine (Invitrogen, Grand Island, N.Y., USA), 0.1 μM dexamethasone (Sigma-Aldrich), 0.17 mM ascorbic acid-2-phosphate (Wako Chemicals, Richmond, Va., USA), 1% ITS+(6.25 µg/mL insulin, 6.25 µg/mL transferrin, 6.25 ng/mL selenous acid, 5.35 μg/ml linoleic acid and 1.25 mg of bovine serum albumin) Premix Culture Supplement (Corning, Corning, N.Y., USA), 1× antibiotic-antimycotic, 1 mM sodium pyruvate (Sigma-Aldrich), 0.35 mM proline (Sigma-Aldrich), and 10 ng/mL recombinant human transforming growth factor-beta3 (TGF-β3, ProSpec, Israel). CCM without insulin consisted of CCM where the 1% ITS+Premix Culture Supplement was substituted with 1% stock solution (6.25 μg/ml transferrin and 6.25 ng/ml selenous acid, 5.35 μg/ml lionleic acid (Sigma-Aldrich) and 1.25 mg of bovine serum albumin (Fisher Scientific). Na2WO4 was added to all media leading to final Na2WO4 concentrations of 0, 0.01, 0.1 and 1 mM. Samples were harvested and analyzed for sulfated glycosaminoglycans (sGAG), cell number and gene expression at day 14 and 28 and for collagen type II and immunostaining at day 28.
Production of sGAG and cell number were determined. Samples were digested using papain (Sigma-Aldrich, Mo., USA) buffer overnight at 65 C. ° following manufacturer's protocol. The sGAG assay is used to measure the total sulfated proteoglycan content using Blyscan sGAG Assay Kit (Biocolor, UK). Cell lysate of samples (n=4 per group) and color reagent were combined in transparent 96-well plate and the absorbance at 656 nm was measured using a microplate spectrophotometer (EMax, Molecular Devices, Melville, N.Y., USA). sGAG concentration was determined relative to chondroitin sulfate standard curve. PicoGreen® ds DNA assay (Life Technologies) was used to determine the cell number. MSCs of known cell number were used as standards. Standards were prepared by lysing the cells using papain buffer. The cell lysate of samples and standards (n=4 per group) was mixed with an equal volume of Pico Green reagent. Fluorescence intensity was measured with a microplate reader ((FLX800, Biotek Instruments, Vt., USA)) at 480 nm excitation and 520 nm emission. A standard curve of known cell number was used to determine the sample cell number. GAG production was normalized to cell number.

aggrecan = assay: Chondrogenesis culture: gene expression by RT-PCR, aggrecan; format: cell-based, human; settings: for aggrecan gene expression vs 0 and 1 mM groups: CCM without insulin
Protocol: as §1
(§2) Gene expression was evaluated using quantitative reverse transcription (RT)-polymerase chain reaction (PCR) analysis. RT-PCR was performed with RNeasy Micro Kit and SYBR Green RT-PCR Kit (Qiagen; Valencia, Calif., USA) using the MX4000 detection system (Stratagene) according to the manufacturer's protocol. Relative gene expression of SOX-9, aggrecan and collagen type II were determined. Samples (n=4 per group) were harvested and digested using Lysis Buffer. RNA was isolated from the samples using RNeasy Micro Kit (Qiagen) including DNA digestion step (RNase Free DNase Set; Qiagen). The RNA quantity and integrity were determined by measuring the absorbance at 260 nm and the absorbance ratio of 260 nm/280 nm, respectively, using Nanodrop™ Spectrophotometer (Thermo Fisher Scientific). Quantitative PCR analysis was performed using QuantiTect SYBR Green supermix including the QuantiTect Primer Assays. The reverse transcription step ran for 30 minutes at 50° C., 15 minutes at 95° C. of PCR activation followed by forty cycle of amplification consisting of 15 s denaturation at 94° C., 30 s of annealing at 55° C., and 30 s of extension at 72° C. A melting curve analysis of the RT-PCR product was included for each reaction. Samples were analyzed in triplicate and the value of each gene was normalized to the reference gene ribosomal protein, large, P0 (RPLP0) for the same sample (ΔCT). Primers were purchased from Qiagen (Hs_ACAN, QT00001365; Hs_SOX9, QT00001498; Hs_COL2A1, QT00049518; and Hs_RPLP0 QT00075012).

SOX-9 = assay: Chondrogenesis culture: gene expression by RT-PCR, SOX-9; format: cell-based, human
Protocol: as §1, §2

collagen type II [1] = assay: Chondrogenesis culture: gene expression by RT-PCR, collagen type II; format: cell-based, human; settings: for collagen type II gene expression vs 0 and 1 mM groups: CCM without insulin, days 14 and 28; for collagen type II gene expression vs 0 mM: day 14
Protocol: as §1, §2

collagen type II [2] = assay: Collagen type II ELISA; format: cell-based, human; settings: day 28
Protocol: as §1
Collagen type II production was quantified by enzyme-linked immunosorbent assay (ELISA) using a collagen type II detection kit (Chondrex Inc. Redmond, Wash., USA). The ELISA was conducted following the manufacturer's instructions. Briefly, samples (n=4 per group) were harvested at day 28 and washed with PBS. Collagen was digested by adding pepsin solution (0.1 mg/ml in 0.05 M acetic acid) at 4 C° for two days with gentle mixing. The digested samples were centrifuged for 3 minutes and supernatants were collected. Pancreatic elastase was added to the samples and incubated overnight at 4° C. Supernatants were then collected. The ELISA plate which was coated with collagen type II was prepared as described by the manufacturer and the absorbance at 490 nm was measured using a microplate spectrophotometer (Emax, Molecular Devices). The collagen type II production was determined relative to the standard curve.

[3] = Sodium tungstate in the scaffold: cell and tissue growth, cytocompatibility; format: cell-based; settings: 0.01-5 weight (wt.) % sodium tungstate in the scaffold
[4] = 0.01 mM Na2WO4, CCM, day 28, p<0.05
[5] = 1 mM Na2WO4, CCM without insulin, day 28

SMILES: [Na+].[Na+].[O]=[W](=[O])([O-])[O-] [Na2WO4, sodium tungstate]
- sGAG production, change between days 14 and 28 (Human MSCs; 0.01 mM Na2WO4, CCM): significant increase in sGAG production
- sGAG production vs 0 mM group (Human MSCs; 0.01 mM Na2WO4, CCM without insulin): higher than 0 mM group in CCM without insulin but not significantly
- sGAG production vs all other groups (Human MSCs; 0.01 mM Na2WO4, CCM, day 28, p<0.005): higher sGAG production than all other groups
- normalized sGAG to cell number vs 0 and 1 mM groups (Human MSCs; [4]): significantly higher
- sGAG production vs 0 mM group (Human MSCs; 0.1 mM Na2WO4, CCM without insulin): higher than 0 mM group in CCM without insulin but not significantly
- sGAG production vs GM alone (Human MSCs; 0.1 mM Na2WO4, GM, day 14): significantly higher
- normalized sGAG to cell number vs 0.01 mM (Human MSCs; [5]): significantly lower normalized sGAG to cell number
- sGAG vs all other groups (Human MSCs; [5]): significantly lower
- aggrecan gene expression vs 0 and 1 mM groups (aggrecan; 0.01 mM Na2WO4, days 14 and 28): significantly higher
- aggrecan gene expression vs 0 mM (aggrecan; 0.01 mM Na2WO4, CCM, day 14, p<0.05): lower aggrecan expression
- aggrecan gene expression vs 0 and 1 mM groups (aggrecan; 0.1 mM Na2WO4, days 14 and 28): significantly higher
- aggrecan gene expression vs all groups (aggrecan; 0.1 mM Na2WO4, CCM, days 14 and 28): significantly higher
- aggrecan gene expression (aggrecan; 1 mM Na2WO4, CCM): lowest gene expression
- aggrecan gene expression (chondrogenic genes) (aggrecan; GM with Na2WO4): no significant upregulation of chondrogenic genes
- SOX-9 gene expression vs 0 mM (SOX-9; 0.01 mM Na2WO4, CCM without insulin, day 14): significantly higher
- SOX-9 gene expression vs 0 mM (SOX-9; [4]): significantly higher SOX-9
- SOX-9 gene expression (SOX-9; 0.1 mM Na2WO4, CCM, day 14, p<0.05): highest SOX-9 gene expression
- SOX-9 gene expression vs 0 mM (SOX-9; 0.1 mM Na2WO4, CCM, day 28, p<0.01): significantly higher SOX-9
- SOX-9 gene expression (SOX-9; 1 mM Na2WO4, CCM): lowest gene expression
- SOX-9 gene expression (chondrogenic genes) (SOX-9; GM with Na2WO4): no significant upregulation of chondrogenic genes
- collagen type II gene expression, change between days 14 and 28 (collagen type II [1]; 0.01 mM Na2WO4, CCM): significant increase in collagen type II expression
- collagen type II gene expression vs 0 and 1 mM groups (collagen type II [1]; 0.01 mM Na2WO4): significantly higher
- collagen type II gene expression vs 0 mM (collagen type II [1]; 0.01 mM Na2WO4, CCM, p<0.001): significantly higher collagen type II
- collagen type II gene expression vs all groups (collagen type II [1]; 0.01 mM Na2WO4, CCM, day 28, p<0.001): significantly higher
- collagen type II gene expression vs 0 and 1 mM groups (collagen type II [1]; 0.1 mM Na2WO4): significantly higher
- collagen type II gene expression vs 0 mM (collagen type II [1]; 0.1 mM Na2WO4, CCM, p<0.001): significantly higher collagen type II
- collagen type II gene expression (collagen type II [1]; 1 mM Na2WO4, CCM): lowest gene expression
- collagen type II gene expression (chondrogenic genes) (collagen type II [1]; GM with Na2WO4): no significant upregulation of chondrogenic genes
- collagen type II production vs all other groups (collagen type II [2]; 0.01 mM Na2WO4, CCM, p<0.001): highest collagen type II
- collagen type II production vs 0 mM group (collagen type II [2]; 0.01 mM Na2WO4, GM, p<0.05): significantly higher collagen type II
- collagen type II production vs 0 mM and 1 mM (collagen type II [2]; 0.1 mM Na2WO4, CCM, p<0.001): significantly higher collagen type II production
- collagen type II production (collagen type II [2]; 1 mM Na2WO4, CCM, p<0.001): lowest
- collagen type II production (collagen type II [2]; CCM without insulin groups): not detected
- cell and tissue growth and cytocompatibility [3]: promoted excellent cell and tissue growth results and cytocompatibility results
